Assay results published in ChEMBL document CHEMBL3045152, “Synthesis and antiviral activity of new 4-(phenylamino)/4-[(methylpyridin-2-yl)amino]-1-phenyl-1H-pyrazolo[3,4-b]pyridine-4-carboxylic acids derivatives” (Med Chem Res, 2007).

What was measured:
[1] = test system: Human alphaherpesvirus 1; experiment: Antiviral activity against Human herpesvirus 1 at 50 uM by end point titration assay; format: functional
[2] = Cytotoxicity against Chlorocebus aethiops (African green monkey) Vero cells after 72 hr by MTT assay; format: cell-based; conditions: chlorocebus sabaeus
[3] = Selectivity index, ratio of CC50 for african green monkey Vero cells to EC50 for Herpes simplex virus 1; format: toxicity, cell-based; conditions: read-out: Ratio CC50/EC50
[4] = test system: Human alphaherpesvirus 1; experiment: Antiviral activity against Human herpesvirus 1 infected in Vero cells after 72 hr by plaque reduction assay; format: functional, organism-based; conditions: Human alphaherpesvirus 1, Vero
[5] = Selectivity index, ratio of CC50 for african green monkey Vero cells to EC50 for Vesicular stomatitis virus; format: toxicity, cell-based; conditions: read-out: Ratio CC50/EC50
[6] = test system: Vesicular stomatitis virus; experiment: Antiviral activity against Vesicular stomatitis virus infected Vero cells after 72 hr by plaque reduction assay; format: functional, organism-based
[7] = test system: Mayaro virus; experiment: Antiviral activity against Mayaro virus infected in Vero cells after 72 hr by plaque reduction assay; format: functional, organism-based
[8] = Selectivity index, ratio of CC50 for african green monkey Vero cells to EC50 for Mayaro virus; format: toxicity, cell-based; conditions: read-out: Ratio CC50/EC50
[9] = test system: Human alphaherpesvirus 1; experiment: Antiviral activity against Human herpesvirus 1 at 10 uM by end point titration assay; format: functional

Row | SMILES | inhibition at 50 µM [1] [%] | other results
1 | CCOC(=O)c1cnc2c(cnn2-c2ccccc2)c1Nc1cc(C)ccn1 | 60 | –
2 | CCOC(=O)c1cnc2c(cnn2-c2ccccc2)c1Nc1ccc(C)cn1 | 90 | –
3 | CCOC(=O)c1cnc2c(cnn2-c2ccccc2)c1Nc1cccc(C)n1 | 90 | –
4 | Cc1ccnc(Nc2c(C(=O)O)cnc3c2cnn3-c2ccccc2)c1 | 75 | –
5 | Cc1ccc(Nc2c(C(=O)O)cnc3c2cnn3-c2ccccc2)nc1 | 60 | –
6 | Cc1cccc(Nc2c(C(=O)O)cnc3c2cnn3-c2ccccc2)n1 | 21 | –
7 | CCOC(=O)c1cnc2c(cnn2-c2ccccc2)c1Nc1ccc(Cl)cc1 | 92 | –
8 | CCOC(=O)c1cnc2c(cnn2-c2ccccc2)c1Nc1cccc(OC)c1 | 98 | –
9 | CCOC(=O)c1cnc2c(cnn2-c2ccccc2)c1Nc1ccc(OC)cc1 | 75.5 | –
10 | CCOC(=O)c1cnc2c(cnn2-c2ccccc2)c1Nc1cccc(F)c1 | 0 | –
11 | CCOC(=O)c1cnc2c(cnn2-c2ccccc2)c1Nc1ccccc1 | 90 | –
12 | CCOC(=O)c1cnc2c(cnn2-c2ccccc2)c1Nc1ccc(C)cc1 | 69.2 | –
13 | CCOC(=O)c1cnc2c(cnn2-c2ccccc2)c1Nc1cccc(Cl)c1 | 60 | –
14 | CCOC(=O)c1cnc2c(cnn2-c2ccccc2)c1Nc1cccc([N+](=O)[O-])c1 | 90 | CC50 at 72 h [2]: 1000 µM; selectivity ratio [3]: 141; EC50 [4]: 6.8 µM
15 | CCOC(=O)c1cnc2c(cnn2-c2ccccc2)c1Nc1ccc([N+](=O)[O-])cc1 | 0 | –
16 | CCOC(=O)c1cnc2c(cnn2-c2ccccc2)c1Nc1cccc(Br)c1 | 70 | –

Row | SMILES | inhibition at 50 µM [1] [%] | other results
17 | CCOC(=O)c1cnc2c(cnn2-c2ccccc2)c1Nc1ccc(Br)cc1 | 75 | –
18 | CCOC(=O)c1cnc2c(cnn2-c2ccccc2)c1Nc1cccc(C)c1 | 90 | –
19 | COc1ccc(Nc2c(C(=O)O)cnc3c2cnn3-c2ccccc2)cc1 | 80.6 | –
20 | O=C(O)c1cnc2c(cnn2-c2ccccc2)c1Nc1ccc(Cl)cc1 | 68 | –
21 | O=C(O)c1cnc2c(cnn2-c2ccccc2)c1Nc1ccc(Br)cc1 | 37 | –
22 | O=C(O)c1cnc2c(cnn2-c2ccccc2)c1Nc1ccc([N+](=O)[O-])cc1 | 80 | –
23 | COc1cccc(Nc2c(C(=O)O)cnc3c2cnn3-c2ccccc2)c1 | 75.5 | –
24 | O=C(O)c1cnc2c(cnn2-c2ccccc2)c1Nc1ccccc1 | 0 | selectivity ratio [5]: 54; EC50 [6]: 2.5 µM; EC50 [7]: 4.8 µM; selectivity ratio [8]: 28; CC50 at 72 h [2]: 135 µM
25 | O=C(O)c1cnc2c(cnn2-c2ccccc2)c1Nc1cccc(Br)c1 | 84 | CC50 at 72 h [2]: 600 µM; selectivity ratio [3]: 272; EC50 [4]: 2.2 µM
26 | Cc1cccc(Nc2c(C(=O)O)cnc3c2cnn3-c2ccccc2)c1 | 38.5 | –
27 | O=C(O)c1cnc2c(cnn2-c2ccccc2)c1Nc1cccc([N+](=O)[O-])c1 | 20.6 | –
28 | Cc1ccc(Nc2c(C(=O)O)cnc3c2cnn3-c2ccccc2)cc1 | 58.4 | –
29 | O=C(O)c1cnc2c(cnn2-c2ccccc2)c1Nc1cccc(Cl)c1 | 68 | selectivity ratio [5]: 37; EC50 [6]: 1 µM; EC50 [7]: 0.52 µM; selectivity ratio [8]: 71; CC50 at 72 h [2]: 37.4 µM
30 | O=C(O)c1cnc2c(cnn2-c2ccccc2)c1Nc1cccc(F)c1 | 68 | –
31 | Nc1nc2c(ncn2COCCO)c(=O)[nH]1 [ACYCLOVIR] | – | selectivity ratio [8]: 880; CC50 at 72 h [2]: 960 µM; selectivity ratio [3]: 880; inhibition at 10 µM [9]: 96%
